Like-named read-outs stand apart in the source and are kept apart here.
Target: T1, PRMT3 (Homo sapiens, UniProt O60678)
T1 construct: made in house; host or cells: E. coli BL21(DE3) Gold
Assay: PRMT3 Biochemical Assay
Source text: Peptide containing the classic RMT substrate motif was synthesized with an N-terminal linker-affinity tag motif and a C-terminal amide cap by 21st Century Biochemicals. The peptide was purified by high-performance liquid chromatography (HPLC) to greater than 95% purity and confirmed by liquid chromatography mass spectrometry (LC-MS). The sequence was Biot-Ahx-[…]-amide (SEQ ID NO.:11).
Full-length human PRMT3 (NM_005788.3) isoform 1 transcript clone was amplified from an HEK 293 cDNA library and subcloned into pGEX-KG (GE Life Sciences). The resulting construct encodes an N-terminal GST tag and a thrombin cleavage sequence
GST-tagged PRMT3 was eluted with 50 mM Tris, 2 mM glutathione, pH 7.1 and 50 mM Tris, 20 mM glutathione, pH 7.1. Pooled fractions were dialysed in 20 mM Tris, 50 mM NaCl, 5% glycerol, 1 mM EDTA, 1 mM DTT, pH7.5 (Buffer B) and applied to a Q Sepharose Fast Flow column. GST-tagged PRMT3 was eluted by 500 mM NaCl in buffer B. Pooled fractions were dialyzed in 25 mM phosphate buffer, 100 mM NaCl, 5% glycerol, 2 mM DTT, pH 6.8 (Buffer C) and loaded on to a ceramic hydroxyapatite column. GST-tagged PRMT3 eluted with 25-400 mM phosphate in buffer C. Protein was concentrated and buffer was exchanged to 20 mM Tris, 150 mM NaCl, 5% glycerol, 5 mM β-mercaptoethanol, pH7.8 by ultrafiltration. The purity of recovered protein was 70%.
General Procedure for PRMT3 Enzyme Assays on Peptide Substrates.
The assays were all performed in a buffer consisting of 20 mM Bicine (pH=7.6), 1 mM TCEP, 0.005% BSG, and 0.002% Tween 20, prepared on the day of use. Compounds in 100% DMSO (1 ul) were spotted into a polypropylene 384-well V-bottom plates (Greiner) using a Platemate Plus outfitted with a 384-channel head (Thermo Scientific). DMSO (1 ul) was added to Columns 11, 12, 23, 24, rows A-H for the maximum signal control and 1 ul of SAH, a known product and inhibitor of PRMT3, was added to columns 11, 12, 23, 24, rows I-P for the minimum signal control. A cocktail (40 ul) containing the PRMT3 enzyme was added by Multidrop Combi (Thermo-Fisher). The compounds were allowed to incubate with PRMT3 for 30 min at room temperature, then a cocktail (10 ul) containing SAM and peptide was added to initiate the reaction (final volume=51 ul). The final concentrations of the components were as follows: PRMT3 was 0.5 nM, ^3H-SAM was 100 nM, non-radiolabeled SAM was 1.8 uM, peptide was 330 nM, SAH in the minimum signal control wells was 1 mM, and the DMSO concentration was 2%. The assays were stopped by the addition of potassium chloride (10 ul) to a final concentration of 100 mM. 50 ul of the reaction in the 384-well polypropylene plate was then transferred to a 384-well Flashplate and the biotinylated peptides were allowed to bind to the streptavidin surface for at least 1 hour before being washed once with 0.1% Tween20 in a Biotek ELx405 plate washer. The plates were then read in a PerkinElmer TopCount plate reader to measure the quantity of ^3H-labeled peptide bound to the Flashplate surface, measured as disintegrations per minute (dpm) or alternatively, referred to as counts per minute (cpm).
Where dpm=disintegrations per minute, cmpd=signal in assay well, and min and max are the respective minimum and maximum signal controls.
Where top and bottom are the normally allowed to float, but may be fixed at 100 or 0 respectively in a 3-parameter fit. The Hill Coefficient normally allowed to float but may also be fixed at 1 in a 3-parameter fit. Y is the % inhibition and X is the compound concentration.

[1] = Table 2, biochemical evaluation, read-out: PRMT3 IC50 (class)
[2] = Table 2a, numerical, single experiment or average of multiple experiments, read-out: PRMT3 IC50

T1 sequence (O60678 with tags, fused parts or gaps): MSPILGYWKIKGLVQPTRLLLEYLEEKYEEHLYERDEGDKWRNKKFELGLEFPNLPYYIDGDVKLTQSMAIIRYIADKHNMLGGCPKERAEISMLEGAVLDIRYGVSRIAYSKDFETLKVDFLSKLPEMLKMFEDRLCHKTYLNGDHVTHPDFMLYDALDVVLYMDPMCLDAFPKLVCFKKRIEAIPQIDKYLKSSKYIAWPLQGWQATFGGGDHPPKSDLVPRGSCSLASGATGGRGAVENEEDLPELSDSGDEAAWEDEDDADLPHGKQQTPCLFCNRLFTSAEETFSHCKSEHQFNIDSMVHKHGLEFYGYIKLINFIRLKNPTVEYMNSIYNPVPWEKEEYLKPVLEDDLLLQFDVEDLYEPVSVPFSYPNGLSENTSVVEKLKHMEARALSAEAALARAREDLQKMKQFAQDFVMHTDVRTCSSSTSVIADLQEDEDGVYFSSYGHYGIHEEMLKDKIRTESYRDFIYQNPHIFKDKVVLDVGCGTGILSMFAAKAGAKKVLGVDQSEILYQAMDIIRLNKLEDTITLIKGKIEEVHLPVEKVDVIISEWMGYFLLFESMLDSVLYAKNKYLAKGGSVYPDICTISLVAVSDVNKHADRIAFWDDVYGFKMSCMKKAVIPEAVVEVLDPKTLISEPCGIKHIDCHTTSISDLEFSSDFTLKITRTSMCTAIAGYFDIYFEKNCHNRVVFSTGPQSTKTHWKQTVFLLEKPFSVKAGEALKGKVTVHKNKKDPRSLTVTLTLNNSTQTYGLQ

Structure (SMILES): CN(CCN)Cc1ccnn1-c1ccc(C#N)cc1 [Compound 2, 4-(5-(((2-aminoethyl)(methyl)amino)methyl)-1H-pyrazol-1-yl)benzonitrile]
- IC50 [1]: > 10 µM
- IC50 [2]: > 10 µM

Structure (SMILES): CN(CCN)Cc1ncoc1-c1ccc(C#N)cc1 [Compound 1, 4-(4-(((2-aminoethyl)(methyl)amino)methyl)oxazol-5-yl)benzonitrile]
- IC50 [1]: > 10 µM
- IC50 [2]: > 10 µM

Structure (SMILES): CN(CCN)Cc1n[nH]nc1-c1ccc(C#N)cc1 [Compound 3, 4-(5-(((2-aminoethyl)(methyl)amino)methyl)-2H-1,2,3-triazol-4-yl)benzonitrile]
- IC50 [1]: > 10 µM
- IC50 [2]: > 10 µM
